The source of these data is publication PMC12320831, “Synthesis and Biological Evaluation of New Chalcogen Semicarbazone (S, Se) and Their Azole Derivatives against Chagas Disease” (Journal of Medicinal Chemistry, 2024).

Where a name gives a salt, the structure may show the parent alone. Read-outs that look alike come from different tables or passages of the source. Bounds are passed on as bounds.

One series concerns T. cruzi CAI/72 strain. Briefly: Antiparasitic activity in C2C12 cells infected with T. cruzi CAI/72 (image-based assay). The series is classed as cell-based. Particulars: Trypanosoma cruzi; for EC50: mean of three experiments in triplicate (n = 9) ± SD. The method, then: Antiparasitic activity and cytotoxicity of compounds were determined as described before (da Silva et al., Boudreau et al.). Mouse myoblasts cell line C2C12 (ATCCCRL-1772), were maintained in high glucose (4.5 g/L glucose) Dulbecco’s modified Eagle’s medium (DMEM Gibco), supplemented with 1% penicillin–streptomycin 10,000 U/mL (Gibco) and 5% fetal bovine serum (FBS, Sigma-Aldrich) at 37 °C with 5% CO2. parasites (CAI/72 strain, DTU TcI) were maintained by weekly coinfection with C2C12 cells. For all activity assays, C2C12 cells were infected at a 10:1 parasite-to-cell ratio with culture-derived trypomastigotes, which were harvested from the supernatant of infected C2C12 cells. After adding compounds to 384-well black clear-bottom plates (Greiner cat. no. 781091), trypomastigotes (7000 parasites/well) and C2C12 cells (700 cells/well) were seeded in a total volume of 50 μL of DMEM per well in the 384-well plates. Compounds were first tested at 10 μM. […] Plates were imaged with the automated ImageXpress MicroXL microscope (Molecular Devices) and analyzed by MetaXpress software (Molecular Devices) using a custom module optimized for this assay. Infection levels (parasites per host cell) were normalized to the positive control (40 μM BNZ) and negative control (DMSO). Antiparasitic activity (EC50) ± standard deviation (SD) and host cell cytotoxicity (C2C12 viability) values were determined from the DRC using Prism software (GraphPad Software, La Jolla, CA). Every assay has three biological replicates, each in triplicates (n = 9 data points).

A short description of series [1]: Host cell cytotoxicity (C2C12 viability). Type of series: cell-based, Mouse. The note with it: mouse; for viability at 48 h, 10 µM: < 50% viability considered cytotoxic; for CC50 at 48 h: viability calculated at 10 μM. The method, then: Antiparasitic activity and cytotoxicity of compounds were determined as described before (da Silva et al., Boudreau et al.). Mouse myoblasts cell line C2C12 (ATCCCRL-1772), were maintained in high glucose (4.5 g/L glucose) Dulbecco’s modified Eagle’s medium (DMEM Gibco), supplemented with 1% penicillin–streptomycin 10,000 U/mL (Gibco) and 5% fetal bovine serum (FBS, Sigma-Aldrich) at 37 °C with 5% CO2. parasites (CAI/72 strain, DTU TcI) were maintained by weekly coinfection with C2C12 cells. For all activity assays, C2C12 cells were infected at a 10:1 parasite-to-cell ratio with culture-derived trypomastigotes, which were harvested from the supernatant of infected C2C12 cells. After adding compounds to 384-well black clear-bottom plates (Greiner cat. no. 781091), trypomastigotes (7000 parasites/well) and C2C12 cells (700 cells/well) were seeded in a total volume of 50 μL of DMEM per well in the 384-well plates. Compounds were first tested at 10 μM. […] After 48 h at 37 °C and 5% CO2, plates were fixed with 4% formaldehyde solution for at least 1 h, washed with 1× PBS, and stained with 5 μg/mL of 4′,6-diamidino-2-phenylindole (DAPI) for at least 1 h prior to reading. Plates were imaged with the automated ImageXpress MicroXL microscope (Molecular Devices) and analyzed by MetaXpress software (Molecular Devices) using a custom module optimized for this assay. Infection levels (parasites per host cell) were normalized to the positive control (40 μM BNZ) and negative control (DMSO). Antiparasitic activity (EC50) ± standard deviation (SD) and host cell cytotoxicity (C2C12 viability) values were determined from the DRC using Prism software (GraphPad Software, La Jolla, CA). Every assay has three biological replicates, each in triplicates (n = 9 data points).

The target in another series is T1, recombinant Cz (cruzain) (Trypanosoma cruzi, UniProt P25779).
T1 construct: Cz was expressed and purified as described in da Silva et al; made in house
As to the kind of experiment: biochemical. Particulars: read-out: Cz inhibition (%), 10 µM. As to the method:
The screening assay was performed using 1 nM of Cz diluted in 0.1 M sodium acetate pH 5.5, 1 mM dithiothreitol (DTT), and 0.01% Triton X-100. Cz was expressed and purified as described in da Silva et al. The reaction starts after 10 min incubating the enzyme with the compounds (10 μM), when adding 2.5 μM of the substrate Z-FR-AMC final concentration (Z-Phe-Arg-amidomethylcoumarin, Sigma-Aldrich, C9521) diluted in the same assay buffer (final volume of 30 μL). The experiment was performed for 10 min. […] The DRC was performed with at least nine different concentrations of the inhibitors, diluted by 2-fold serial dilution, ranging from […] to 10 μM.
All experiments were accomplished in a 384-well black microplate, using a Synergy HTX (Biotek) plate reader at 25 °C with absorption/emission wavelengths of 360/460 nm. All assays were performed in triplicate wells and DMSO was used as a vehicle control. Enzymatic activity was measured and normalized to DMSO controls, and the inhibitor E-64 (10 μM) was used as a positive control for all assays. All experiments were performed in triplicates, with at least two independent assays (n = 6 data points). IC50 values were determined through nonlinear regression. Obtained data were treated and analyzed using GraphPad Prism 9.0 (GraphPad Software, La Jolla, California).

The mark [2] stands for this setting: intracellular amastigotes in C2C12 cells, 48 h, read-out: EC50 Tc CAI/72.
The mark [3] stands for this setting: C2C12 myoblast cells infected with trypomastigotes.
Where [4] appears, read: 10 µM, C2C12 infected cells, read-out: Anti-Tc CAI/72 activity (%).
Where [5] appears, read: C2C12, read-out: Anti-Tc CAI/72 activity (%).

T1 sequence (P25779 123-337 limits assumed): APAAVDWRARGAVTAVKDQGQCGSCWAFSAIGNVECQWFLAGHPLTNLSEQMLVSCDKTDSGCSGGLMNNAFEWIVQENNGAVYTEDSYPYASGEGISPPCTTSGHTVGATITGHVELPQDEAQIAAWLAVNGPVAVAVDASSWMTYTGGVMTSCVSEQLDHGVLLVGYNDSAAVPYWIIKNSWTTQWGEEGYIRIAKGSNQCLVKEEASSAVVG

In general, viability refers to a per cent measure of how many cells are alive, often set against a control. High values mean better survival, low ones a greater loss of cells. Usually CC50 stands for the concentration that lowers cell viability or growth by half. For `O=C(Cn1ccnc1[N+](=O)[O-])NCc1ccccc1` [BZ, Benznidazole, reference compound], the inhibition at 40 µM in the series on T. cruzi CAI/72 strain (40 µM (BZ), C2C12 infected cells, read-out: Anti-Tc CAI/72 activity (%)) is 81.7%. Also, the EC50 in the series on T. cruzi CAI/72 strain (setting [2]) is 5.79 ± 1.2 µM. Also, in series [1] (setting [3]), the viability at 48 h, 10 µM was > 100% and the CC50 at 48 h is > 10 µM.

As for `C/C(=N\NC(N)=S)c1ccc(C)cc1` [Compound S1a, (E)-2-(1-(4-Tolyl)ethylidene)hydrazine-1-carbothioamide], the inhibition at 10 µM amounted to 42.3% with T. cruzi CAI/72 strain (setting [4]) and 74.8% at recombinant Cz (cruzain). Moreover, the viability at 48 h, 10 µM in series [1] is > 100%.

For the compound `COc1ccc(/C(C)=N/NC(N)=S)cc1` [Compound S1b, (E)-2-(1-(4-Methoxyphenyl)ethylidene)hydrazine-1-carbothioamide], the inhibition at 10 µM is 23.2% in the series on T. cruzi CAI/72 strain (setting [4]) and 87.1% at recombinant Cz (cruzain). Further, the viability at 48 h, 10 µM in series [1] (setting [3]) is > 100%.

Take `C/C(=N\NC(N)=S)c1ccc([N+](=O)[O-])cc1` [Compound S1c, (E)-2-(1-(4-Nitrophenyl)ethylidene)hydrazine-1-carbothioamide]: the inhibition at 10 µM with T. cruzi CAI/72 strain (setting [4]) turned out to be 20.6%; on recombinant Cz (cruzain), 97.6%. In series [1] (setting [3]), the viability at 48 h, 10 µM is > 100%.

On to `C/C(=N\NC(N)=S)c1ccc(C(F)(F)F)cc1` [Compound S1d, (E)-2-(1-(4-(Trifluoromethyl)phenyl)ethylidene)hydrazine-1-carbothioamide], for which the inhibition at 10 µM with T. cruzi CAI/72 strain (setting [4]) was 43.8%; at recombinant Cz (cruzain), 85.8%. The viability at 48 h, 10 µM in series [1] (setting [3]) came to 93.1%.

For the compound `C/C(=N\NC(N)=S)c1ccc(Br)cc1` [Compound S1f, (E)-2-(1-(4-Bromophenyl)ethylidene)hydrazine-1-carbothioamide], the inhibition at 10 µM with T. cruzi CAI/72 strain (setting [4]) was 45.4%; on recombinant Cz (cruzain), 97.1%. For the same compound, the viability at 48 h, 10 µM in series [1] (setting [3]) is > 100%.

`COc1cccc(/C(C)=N/N=C(/N)S)c1` [Compound S1g, (E)-2-(1-(3-Methoxyphenyl)ethylidene)hydrazine-1-carbothioamide]: the figures for the inhibition at 10 µM with T. cruzi CAI/72 strain (setting [4]) and at recombinant Cz (cruzain) were 22.3% and 95.3%, respectively. Moreover, the viability at 48 h, 10 µM in series [1] (setting [3]) was > 100%.

As for `C/C(=N\NC(N)=S)c1ccc(F)c(F)c1` [Compound S1j, (E)-2-(1-(3,4-Difluorophenyl)ethylidene)hydrazine-1-carbothioamide], the inhibition at 10 µM was determined as 49.9% in the series on T. cruzi CAI/72 strain (setting [4]) and 99.8% on recombinant Cz (cruzain). Also, in series [1] (setting [3]), the viability at 48 h, 10 µM is > 100%.

As for `COc1ccc(/C(C)=N/NC(N)=S)c(OC)c1` [Compound S1k, (E,Z)-2-(1-(2,4-Dimethoxyphenyl)ethylidene)hydrazine-1-carbothioamide], the inhibition at 10 µM in the series on T. cruzi CAI/72 strain (setting [4]) was 0.7%; on recombinant Cz (cruzain), 39.3%. The viability at 48 h, 10 µM in series [1] (setting [3]) is > 100%.

With `C/C(Cc1cccc(Cl)c1)=N\NC(N)=S` [Compound S1m, (E)-2-(1-(3-Chlorophenyl)propan-2-ylidene)hydrazine-1-carbothioamide], in the series with T. cruzi CAI/72 strain (setting [4]), the inhibition at 10 µM was 69.4%. Moreover, the EC50 in the series on T. cruzi CAI/72 strain (setting [2]) came out at 2.92 ± 0.16 µM. Besides, in series [1] (setting [3]), the viability at 48 h, 10 µM is > 100% and the cytotoxic concentration (CC50) at 48 h was > 10 µM. Also, the inhibition at 10 µM at recombinant Cz (cruzain) came to 72.3%.

Regarding `COc1ccc(C/C(C)=N/NC(N)=S)cc1` [Compound S1n, (E)-2-(1-(4-Methoxyphenyl)propan-2-ylidene)hydrazine-1-carbothioamide], the figures for the inhibition at 10 µM in the series with T. cruzi CAI/72 strain (setting [4]) and on recombinant Cz (cruzain) were 34.5% and 56.2%, respectively. Further, in series [1] (setting [3]), the viability at 48 h, 10 µM was > 100%.

Turning to `C/C(=N\NC(N)=S)c1csc2ccccc12` [Compound S1o, (E)-2-(1-(Benzo[b]thiophen-3-yl)ethylidene)hydrazine-1-carbothioamide], the inhibition at 10 µM came to 23.1% in the series with T. cruzi CAI/72 strain (setting [4]) and 100% on recombinant Cz (cruzain). In addition, the viability at 48 h, 10 µM in series [1] (setting [3]) is > 100%.

With `C/C(=N\NC(N)=S)c1cc2ccccc2o1` [Compound S1p, (E)-2-(1-(Benzofuran-2-yl)ethylidene)hydrazine-1-carbothioamide], the results for the inhibition at 10 µM in the series with T. cruzi CAI/72 strain (setting [4]) and at recombinant Cz (cruzain) were 49.7% and 99.3%, respectively. Moreover, the viability at 48 h, 10 µM in series [1] (setting [3]) is > 100%.

`C/C(=N\Nc1nc(C)cs1)c1ccc([N+](=O)[O-])cc1` [Compound S2c, (E)-4-Methyl-2-(2-(1-(4-nitrophenyl)ethylidene)hydrazineyl)thiazole Hydrochloride] had a viability at 48 h, 10 µM in series [1] (setting [3]) of 99.2%. Further, at recombinant Cz (cruzain), the inhibition at 10 µM is 96.7%.

For `C/C(=N\Nc1nc(C)cs1)c1ccc(C(F)(F)F)cc1` [Compound S2d, (E)-4-Methyl-2-(2-(1-(4-(trifluoromethyl)phenyl)ethylidene)hydrazineyl)thiazole Hydrochloride], the viability at 48 h, 10 µM in series [1] (setting [3]) was > 100%. Moreover, at recombinant Cz (cruzain), the inhibition at 10 µM stood at 41.6%.

Regarding `C/C(=N\NC(N)=[Se])c1ccc(F)c(F)c1` [Se1j, (E)-2-(1-(3,4-Difluorophenyl)ethylidene)hydrazine-1-carboselenoamide], the viability at 48 h, 10 µM in series [1] was 27.7%. Moreover, the inhibition at 10 µM on recombinant Cz (cruzain) was determined as 102%.

With `COc1ccc(/C(C)=N/NC(N)=[Se])c(OC)c1` [Se1k, (E,Z)-2-(1-(2,4-Dimethoxyphenyl)ethylidene)hydrazine-1-carboselenoamide], the viability at 48 h, 10 µM in series [1] was 43.7%. In addition, the inhibition at 10 µM at recombinant Cz (cruzain) came out at 92.5%.

Turning to `COc1ccc(/C(C)=N/Nc2nc(C)c[se]2)c(OC)c1` [Se2k, (E,Z)-2-(2-(1-(2,4-Dimethoxyphenyl)ethylidene)hydrazineyl)-4-methyl-1,3-selenazole Hydrochloride], in the series with T. cruzi CAI/72 strain (setting [5]), the inhibition at 10 µM was determined as 38.1%. The viability at 48 h, 10 µM in series [1] was > 100%.

As for `C/C(=N\Nc1nc(C)c[se]1)c1ccsc1` [Se2l, (E)-4-Methyl-2-(2-(1-(thiophen-3-yl)ethylidene)hydrazineyl)-1,3-selenazole Hydrochloride], in the series on T. cruzi CAI/72 strain (C2C12, 48 h, read-out: EC50 Tc CAI/72, intracellular amastigotes in C2C12 cells, 48 h), the EC50 was found to be 3.73 µM. Moreover, the inhibition at 10 µM in the series on T. cruzi CAI/72 strain (setting [5]) is 50.4%. For the same compound, in series [1], the viability at 48 h, 10 µM was > 100% and the cytotoxic concentration (CC50) at 48 h was > 10 µM.

Turning to `C/C(=N\Nc1nc(C)c[se]1)C12CC3CC(CC(C3)C1)C2` [Se2q, 2-(2-((E)-1-((3s)-Adamantan-1-yl)ethylidene)hydrazineyl)-4-methyl-1,3-selenazole], the inhibition at 10 µM with T. cruzi CAI/72 strain (setting [5]) was determined as 40.6%. Besides, the viability at 48 h, 10 µM in series [1] was > 100%.
